Reference: publication PMC5067538 (Frontiers in Microbiology, 2016)
Like-named read-outs stand apart in the source and are kept apart here.

What was measured:
PrbP (CLIBASIA_01510) = molecular target: T1, PrbP (CLIBASIA_01510) (Candidatus Liberibacter asiaticus, UniProt A0ABM5NE52); conditions: 2.5 µM PrbP, 1 ng biotin-labelled rplK promoter probe, 10 mM HEPES pH 7.5, 150 mM NaCl, 37 °C
T1 construct: gene WSI_01420

[1] = molecular target: T2, PrbP/RpoB (two-hybrid, PrbP with RpoB 21-150) (Candidatus Liberibacter asiaticus, UniProt A0ABM5NE52); conditions: E. coli TOP10, 240 min, 37 °C, inhibition of PrbP/RpoB interaction, indirect reporter
T2 construct: gene WSI_01420

Compound: Cc1c(Cl)cccc1Nc1ccccc1C(=O)O [Tolfenamic acid]
- complete disruption (PrbP (CLIBASIA_01510)): 350 µM
- β-galactosidase activity^d (% decrease) ([1]; 25 µM compound): 17.5 ± 5.3%

Compound: Cc1ncc([N+](=O)[O-])n1CCO [Metronidazole]
- β-galactosidase activity^d (% decrease) ([1]; 50 µM compound): 53.7 ± 10%

Compound: CN(C)Cc1c[nH]c2ccccc12 [Gramine]
- β-galactosidase activity^d (% decrease) ([1]; 40 µM compound): 15.3 ± 0.3%
